Data: publication PMC10176470, “Engaging a Non-catalytic Cysteine Residue Drives Potent and Selective Inhibition of Caspase-6” (Journal of the American Chemical Society, 2023)

Columns and labels:
Format in all cases: cell-based
[1] = molecular target: T1, proteins of HEK293T cells transiently overexpressing caspase-6 (Homo sapiens, UniProt P55060); settings: protein CSE1L (P55060)
T1 sequence (P55060 1-971): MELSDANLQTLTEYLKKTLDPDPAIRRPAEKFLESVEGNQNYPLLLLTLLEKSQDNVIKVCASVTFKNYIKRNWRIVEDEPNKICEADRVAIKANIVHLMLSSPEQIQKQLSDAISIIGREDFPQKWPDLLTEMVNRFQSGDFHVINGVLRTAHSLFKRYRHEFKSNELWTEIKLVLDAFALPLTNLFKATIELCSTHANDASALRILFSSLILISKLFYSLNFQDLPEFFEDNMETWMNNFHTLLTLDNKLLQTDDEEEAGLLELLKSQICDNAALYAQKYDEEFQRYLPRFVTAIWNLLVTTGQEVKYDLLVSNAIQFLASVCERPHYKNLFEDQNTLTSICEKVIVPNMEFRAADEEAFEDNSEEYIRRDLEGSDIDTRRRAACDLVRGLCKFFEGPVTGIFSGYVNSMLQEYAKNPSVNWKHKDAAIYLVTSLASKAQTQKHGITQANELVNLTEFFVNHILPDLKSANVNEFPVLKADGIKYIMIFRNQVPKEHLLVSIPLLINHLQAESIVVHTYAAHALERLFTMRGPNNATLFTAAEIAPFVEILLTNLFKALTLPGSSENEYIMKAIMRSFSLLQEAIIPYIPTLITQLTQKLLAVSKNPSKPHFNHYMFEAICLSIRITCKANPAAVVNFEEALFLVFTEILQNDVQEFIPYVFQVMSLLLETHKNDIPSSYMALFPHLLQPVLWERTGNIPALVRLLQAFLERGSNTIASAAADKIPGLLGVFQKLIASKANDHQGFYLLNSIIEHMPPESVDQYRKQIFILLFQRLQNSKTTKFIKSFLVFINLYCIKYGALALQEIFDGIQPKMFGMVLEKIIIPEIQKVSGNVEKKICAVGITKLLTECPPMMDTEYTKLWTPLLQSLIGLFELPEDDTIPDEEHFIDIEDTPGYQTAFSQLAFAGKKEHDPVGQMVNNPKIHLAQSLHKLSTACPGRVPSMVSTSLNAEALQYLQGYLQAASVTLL

[2] = molecular target: proteins of HEK293T cells transiently overexpressing caspase-6 (Homo sapiens, UniProt P23528); settings: protein CFL1 (P23528)
[3] = molecular target: proteins of HEK293T cells transiently overexpressing caspase-6 (Homo sapiens, UniProt P05023); settings: exp_ref Probe; protein ATP1A1 (P05023); analysis C6
[4] = molecular target: T2, proteins of HEK293T cells transiently overexpressing caspase-6 (Homo sapiens, UniProt P09936); settings: protein UCHL1 (P09936)
T2 sequence (P09936 1-223): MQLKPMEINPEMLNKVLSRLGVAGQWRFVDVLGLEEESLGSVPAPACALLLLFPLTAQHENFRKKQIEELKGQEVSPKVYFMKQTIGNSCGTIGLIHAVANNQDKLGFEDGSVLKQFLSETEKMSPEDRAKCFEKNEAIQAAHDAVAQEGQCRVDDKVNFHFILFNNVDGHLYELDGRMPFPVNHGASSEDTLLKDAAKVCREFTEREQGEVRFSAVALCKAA

[5] = molecular target: proteins of HEK293T cells transiently overexpressing caspase-6 (Homo sapiens, UniProt P55884); settings: exp_ref Probe; protein EIF3B (P55884); analysis C6
[6] = molecular target: proteins of HEK293T cells transiently overexpressing caspase-6 (Homo sapiens, UniProt P62263); settings: exp_ref Probe; protein RPS14 (P62263); analysis C6
[7] = molecular target: proteins of HEK293T cells transiently overexpressing caspase-6 (Homo sapiens, UniProt O95373); settings: Probe; protein IPO7 O95373
[8] = molecular target: proteins of HEK293T cells transiently overexpressing caspase-6 (Homo sapiens, UniProt O75533); settings: exp_ref Probe; protein SF3B1 (O75533); analysis C6
[9] = molecular target: proteins of HEK293T cells transiently overexpressing caspase-6 (Homo sapiens, UniProt Q7KZF4); settings: exp_ref Probe; protein SND1 (Q7KZF4); analysis C6
[10] = molecular target: proteins of HEK293T cells transiently overexpressing caspase-6 (Homo sapiens, UniProt P07195)
[11] = molecular target: proteins of HEK293T cells transiently overexpressing caspase-6 (Homo sapiens, UniProt P15880); settings: protein RPS2 (P15880)
[12] = molecular target: proteins of HEK293T cells transiently overexpressing caspase-6 (Homo sapiens, UniProt P07900); settings: exp_ref Probe; protein HSP90AA1 (P07900); analysis C6
[13] = molecular target: proteins of HEK293T cells transiently overexpressing caspase-6 (Homo sapiens, UniProt P62424); settings: exp_ref Probe; protein RPL7A (P62424); analysis C6
[14] = molecular target: T3, proteins of HEK293T cells transiently overexpressing caspase-6 (Homo sapiens, UniProt Q13162)
T3 sequence (Q13162 38-271): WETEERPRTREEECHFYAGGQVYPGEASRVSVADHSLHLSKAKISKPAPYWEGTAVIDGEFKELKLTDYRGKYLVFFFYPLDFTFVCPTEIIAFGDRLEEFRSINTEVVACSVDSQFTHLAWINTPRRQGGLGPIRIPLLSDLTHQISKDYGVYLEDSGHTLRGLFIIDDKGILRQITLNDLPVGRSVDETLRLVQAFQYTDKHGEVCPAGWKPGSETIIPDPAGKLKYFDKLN

Chain of proteins of HEK293T cells transiently overexpressing caspase-6 (Homo sapiens, UniProt P23528) (P23528 whole entry): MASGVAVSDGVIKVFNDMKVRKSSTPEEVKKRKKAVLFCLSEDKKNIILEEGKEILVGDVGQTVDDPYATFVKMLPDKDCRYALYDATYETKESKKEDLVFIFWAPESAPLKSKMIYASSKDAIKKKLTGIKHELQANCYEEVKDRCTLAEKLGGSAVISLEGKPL
Chain of proteins of HEK293T cells transiently overexpressing caspase-6 (Homo sapiens, UniProt P07195) (P07195 whole entry): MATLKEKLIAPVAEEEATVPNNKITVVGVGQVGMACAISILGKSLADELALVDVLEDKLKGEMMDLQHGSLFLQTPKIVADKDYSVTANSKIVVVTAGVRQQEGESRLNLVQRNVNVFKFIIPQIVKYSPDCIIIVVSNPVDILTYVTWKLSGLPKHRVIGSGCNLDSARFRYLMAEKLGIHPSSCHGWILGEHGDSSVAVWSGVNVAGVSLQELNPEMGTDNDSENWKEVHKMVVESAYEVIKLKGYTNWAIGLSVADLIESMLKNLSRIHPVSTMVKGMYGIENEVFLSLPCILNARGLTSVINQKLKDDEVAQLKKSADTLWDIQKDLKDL
Chain of proteins of HEK293T cells transiently overexpressing caspase-6 (Homo sapiens, UniProt Q7KZF4) (Q7KZF4 whole entry): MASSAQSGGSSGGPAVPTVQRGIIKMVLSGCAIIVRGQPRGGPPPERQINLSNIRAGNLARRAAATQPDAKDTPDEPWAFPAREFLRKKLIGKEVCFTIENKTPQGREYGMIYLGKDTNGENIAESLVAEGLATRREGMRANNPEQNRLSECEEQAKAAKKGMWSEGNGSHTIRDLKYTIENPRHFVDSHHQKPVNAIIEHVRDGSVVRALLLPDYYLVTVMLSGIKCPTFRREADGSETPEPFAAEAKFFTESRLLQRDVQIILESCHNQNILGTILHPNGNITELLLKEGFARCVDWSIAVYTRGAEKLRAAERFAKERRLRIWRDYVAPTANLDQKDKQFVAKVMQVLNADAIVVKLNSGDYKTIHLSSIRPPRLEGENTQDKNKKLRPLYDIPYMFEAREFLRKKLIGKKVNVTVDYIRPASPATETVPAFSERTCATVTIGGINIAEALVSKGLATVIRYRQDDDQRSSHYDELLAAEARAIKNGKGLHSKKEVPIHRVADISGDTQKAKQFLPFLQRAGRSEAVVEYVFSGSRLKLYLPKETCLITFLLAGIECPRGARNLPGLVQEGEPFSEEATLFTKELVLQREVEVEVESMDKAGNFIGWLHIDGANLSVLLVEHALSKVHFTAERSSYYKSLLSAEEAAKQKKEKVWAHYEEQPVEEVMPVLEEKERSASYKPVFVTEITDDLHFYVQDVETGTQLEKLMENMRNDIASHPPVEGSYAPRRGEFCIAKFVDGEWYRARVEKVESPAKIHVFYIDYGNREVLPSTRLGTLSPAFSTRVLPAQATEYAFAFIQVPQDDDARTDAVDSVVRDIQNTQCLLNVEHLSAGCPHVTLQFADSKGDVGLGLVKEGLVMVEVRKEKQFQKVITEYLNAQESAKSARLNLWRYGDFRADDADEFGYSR
Chain of proteins of HEK293T cells transiently overexpressing caspase-6 (Homo sapiens, UniProt O75533) (O75533 whole entry): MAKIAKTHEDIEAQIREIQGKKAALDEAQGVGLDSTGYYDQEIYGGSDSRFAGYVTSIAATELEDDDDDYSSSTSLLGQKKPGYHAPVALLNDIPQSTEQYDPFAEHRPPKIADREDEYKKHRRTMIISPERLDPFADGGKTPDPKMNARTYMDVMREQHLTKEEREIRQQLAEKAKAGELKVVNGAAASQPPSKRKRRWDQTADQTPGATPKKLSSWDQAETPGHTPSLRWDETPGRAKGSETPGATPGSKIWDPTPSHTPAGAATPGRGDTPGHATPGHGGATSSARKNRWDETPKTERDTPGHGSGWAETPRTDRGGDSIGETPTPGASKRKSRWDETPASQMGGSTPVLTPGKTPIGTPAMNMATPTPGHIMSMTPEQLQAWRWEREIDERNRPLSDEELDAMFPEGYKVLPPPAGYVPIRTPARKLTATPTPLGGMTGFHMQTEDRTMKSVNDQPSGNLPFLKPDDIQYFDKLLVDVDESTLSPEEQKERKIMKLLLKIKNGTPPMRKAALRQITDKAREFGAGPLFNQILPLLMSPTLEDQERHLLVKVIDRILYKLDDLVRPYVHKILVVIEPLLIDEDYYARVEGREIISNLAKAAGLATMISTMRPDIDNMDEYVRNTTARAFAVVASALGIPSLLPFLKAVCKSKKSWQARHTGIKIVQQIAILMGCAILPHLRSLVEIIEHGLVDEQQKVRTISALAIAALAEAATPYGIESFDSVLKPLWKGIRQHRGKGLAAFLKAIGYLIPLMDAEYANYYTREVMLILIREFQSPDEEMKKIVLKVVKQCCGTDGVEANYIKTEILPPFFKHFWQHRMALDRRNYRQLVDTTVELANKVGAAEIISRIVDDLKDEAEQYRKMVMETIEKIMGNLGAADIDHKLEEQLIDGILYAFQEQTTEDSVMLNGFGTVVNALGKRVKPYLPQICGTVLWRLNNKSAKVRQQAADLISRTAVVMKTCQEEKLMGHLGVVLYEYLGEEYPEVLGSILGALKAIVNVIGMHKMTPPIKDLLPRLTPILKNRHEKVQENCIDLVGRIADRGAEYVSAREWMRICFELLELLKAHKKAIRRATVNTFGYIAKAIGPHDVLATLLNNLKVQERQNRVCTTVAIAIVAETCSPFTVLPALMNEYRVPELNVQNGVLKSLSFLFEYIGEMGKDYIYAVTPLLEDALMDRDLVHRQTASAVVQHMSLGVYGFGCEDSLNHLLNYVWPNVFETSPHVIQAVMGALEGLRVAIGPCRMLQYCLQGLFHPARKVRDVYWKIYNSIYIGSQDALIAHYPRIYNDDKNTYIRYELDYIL
Chain of proteins of HEK293T cells transiently overexpressing caspase-6 (Homo sapiens, UniProt P55884) (P55884 whole entry): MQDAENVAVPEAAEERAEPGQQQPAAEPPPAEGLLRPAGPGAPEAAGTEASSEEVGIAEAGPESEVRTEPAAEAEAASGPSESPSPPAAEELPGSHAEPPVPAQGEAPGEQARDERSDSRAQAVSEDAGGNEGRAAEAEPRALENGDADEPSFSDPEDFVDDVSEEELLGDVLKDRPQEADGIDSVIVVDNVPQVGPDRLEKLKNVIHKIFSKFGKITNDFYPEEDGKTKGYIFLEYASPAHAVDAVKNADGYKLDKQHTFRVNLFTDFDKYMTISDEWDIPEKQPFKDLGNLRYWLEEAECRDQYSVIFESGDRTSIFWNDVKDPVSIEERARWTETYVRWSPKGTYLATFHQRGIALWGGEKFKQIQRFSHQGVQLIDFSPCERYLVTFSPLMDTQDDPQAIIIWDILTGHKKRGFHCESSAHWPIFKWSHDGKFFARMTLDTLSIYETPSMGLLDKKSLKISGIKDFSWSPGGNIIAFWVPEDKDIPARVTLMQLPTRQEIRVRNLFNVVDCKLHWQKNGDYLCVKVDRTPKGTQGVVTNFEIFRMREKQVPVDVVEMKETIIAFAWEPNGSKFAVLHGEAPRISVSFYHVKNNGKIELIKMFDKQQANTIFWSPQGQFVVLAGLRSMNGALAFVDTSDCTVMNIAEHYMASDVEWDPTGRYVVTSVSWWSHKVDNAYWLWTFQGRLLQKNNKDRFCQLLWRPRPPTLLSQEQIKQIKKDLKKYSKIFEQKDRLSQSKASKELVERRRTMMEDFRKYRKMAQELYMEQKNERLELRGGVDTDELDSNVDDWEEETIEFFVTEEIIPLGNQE
Chain of proteins of HEK293T cells transiently overexpressing caspase-6 (Homo sapiens, UniProt O95373) (O95373 whole entry): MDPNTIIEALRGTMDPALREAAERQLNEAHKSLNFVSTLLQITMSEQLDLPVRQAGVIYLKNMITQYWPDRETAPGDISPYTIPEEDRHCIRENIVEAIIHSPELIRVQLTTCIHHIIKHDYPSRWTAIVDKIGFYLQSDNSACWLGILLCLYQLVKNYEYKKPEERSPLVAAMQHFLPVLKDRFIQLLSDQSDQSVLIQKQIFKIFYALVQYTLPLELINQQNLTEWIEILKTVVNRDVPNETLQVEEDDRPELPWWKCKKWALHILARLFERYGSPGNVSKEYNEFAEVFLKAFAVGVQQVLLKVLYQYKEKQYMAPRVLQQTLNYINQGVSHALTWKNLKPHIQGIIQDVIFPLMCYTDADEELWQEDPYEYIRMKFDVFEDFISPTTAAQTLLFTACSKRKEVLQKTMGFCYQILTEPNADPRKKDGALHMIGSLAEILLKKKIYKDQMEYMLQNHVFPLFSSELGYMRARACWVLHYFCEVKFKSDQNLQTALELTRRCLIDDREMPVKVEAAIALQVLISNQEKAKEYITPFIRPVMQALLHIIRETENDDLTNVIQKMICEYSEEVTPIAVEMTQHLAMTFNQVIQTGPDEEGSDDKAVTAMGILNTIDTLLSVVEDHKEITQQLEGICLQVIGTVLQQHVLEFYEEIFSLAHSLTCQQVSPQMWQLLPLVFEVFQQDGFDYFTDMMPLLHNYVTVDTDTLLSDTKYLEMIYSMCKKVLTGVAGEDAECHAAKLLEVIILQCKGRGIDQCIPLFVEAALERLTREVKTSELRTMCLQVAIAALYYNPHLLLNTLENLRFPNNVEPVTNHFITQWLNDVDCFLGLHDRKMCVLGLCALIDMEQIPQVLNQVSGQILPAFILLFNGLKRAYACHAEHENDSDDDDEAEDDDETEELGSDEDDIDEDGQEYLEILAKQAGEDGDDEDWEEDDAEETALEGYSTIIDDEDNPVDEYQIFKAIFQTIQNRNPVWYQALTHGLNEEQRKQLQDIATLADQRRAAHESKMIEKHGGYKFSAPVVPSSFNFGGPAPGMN

C#CCOc1ccc([C@@H]2C[C@@H](C(=O)Nc3ccc(OC(F)(F)F)cc3)CN(S(=O)(=O)C=C)C2)cc1 (relative stereo) [13-t]
enrich.exp.med ([1]; exp_ref Probe, analysis C6): 1.237
enrich.exp.med.lin [1]: 2.357
enrich.exp.med.log2 [1]: 1.237
enrich.exp.med ([2]; exp_ref Probe, analysis C6): 0.4078
enrich.exp.med.lin [2]: 1.327
enrich.exp.med.log2 [2]: 0.4078
enrich.exp.med [3]: -0.3639
enrich.exp.med.lin [4]: 3.454
enrich.exp.med.log2 [4]: 1.788
enrich.exp.med ([4]; exp_ref Probe, analysis C6): 1.788
enrich.exp.med [5]: 0.2575
enrich.exp.med [6]: -0.03314
enrich.exp.med [7]: -0.5106
enrich.exp.med [8]: 0.3273
enrich.exp.med [9]: 0.1516
enrich.exp.med ([10]; Probe, protein LDHB P07195): -0.537
enrich.exp.med.lin ([10]; protein LDHB (P07195)): 0.6892
enrich.exp.med.log2 ([10]; protein LDHB (P07195)): -0.537
enrich.exp.med ([11]; exp_ref Probe, analysis C6): 0.988
enrich.exp.med.lin [11]: 1.9835
enrich.exp.med.log2 [11]: 0.988
enrich.exp.med [12]: 0.7182
enrich.exp.med [13]: 0.8961
enrich.exp.med ([14]; Probe, protein PRDX4 Q13162): -1.846
enrich.exp.med.lin ([14]; protein PRDX4 (Q13162)): 0.2781
enrich.exp.med.log2 ([14]; protein PRDX4 (Q13162)): -1.846
